# System: NYHA III heart failure patients, who had not had erections for several years
# Assay: Clinical data: levosimendan infusion in heart failure patients with erectile dysfunction
# Format: in vivo, man
# Experimental: Clinical Data Two NYHA III heart failure patients, who had not had erections for several years were treated with levosimendan. Patient I was exposed to 0.05 μg/kg/min continuous infusion of levosimendan for 7 days.
# [1] = Patient I, 0.05 μg/kg/min continuous infusion for 7 days
compound,measurement,setting,value
"CC1CC(=O)NN=C1c1ccc(NN=C(C#N)C#N)cc1 (single isomer, unassigned; (-)) [levosimendan, (−)-[[4-(1,4,5,6-tetrahydro-4-methyl-6-oxo-3-pyridazinyl)phenyl]hydrazono]propanedinitrile]",erections during the study,[1],erections in the mornings during the whole study
same,time to reported erections after starting the infusion,[1],1 days
same,erections reported,"Patient II, 0.1 μg/kg/min continuous infusion for 2 days",reported erections
